Several values for one entry are separate records, joined by “and”; a condition that tells them apart may be missing. Identical values can stand only once. Toxic doses and inconclusive results are not listed. The calls were made as follows: active = survival T/C of 150% or more; inactive = T/C below 125% in these data.
Test system: P388 leukemia ip, CD2F1 mice, survival T/C
Test: NCI In Vivo Anticancer Drug Screen. Data for tumor model P388 Leukemia (intraperitoneal) in CD2F1 (CDF1) mice
Settings: endpoint: median survival time, higher = longer survival
In short: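 Mice carrying the transplanted tumor received test compound or vehicle. Survival was recorded in each group, and the value is the treated-group measurement divided by that of the vehicle-treated control group.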

[1] = dose: 60.0 mg/kg/injection, schedule: Q01DX005 (ip), vehicle: saline with Tween-80
[2] = dose: 120.0 mg/kg/injection, schedule: Q01DX005 (ip), vehicle: saline with Tween-80
[3] = dose: 240.0 mg/kg/injection, schedule: Q01DX005 (ip), vehicle: saline with Tween-80
[4] = dose: 50.0 mg/kg/injection, schedule: Q01DX005 (ip), vehicle: Klucel (hydroxypropylcellulose) (HPC)
[5] = dose: 100.0 mg/kg/injection, schedule: Q01DX005 (ip), vehicle: Klucel (hydroxypropylcellulose) (HPC)
[6] = dose: 200.0 mg/kg/injection, schedule: Q01DX005 (ip), vehicle: Klucel (hydroxypropylcellulose) (HPC)
[7] = dose: 50.0 mg/kg/injection, schedule: Q01DX005 (ip), vehicle: saline with Tween-80
[8] = dose: 100.0 mg/kg/injection, schedule: Q01DX005 (ip), vehicle: saline with Tween-80
[9] = dose: 200.0 mg/kg/injection, schedule: Q01DX005 (ip), vehicle: saline with Tween-80
[10] = dose: 12.5 mg/kg/injection, schedule: Q01DX009 (ip), vehicle: water
[11] = dose: 25.0 mg/kg/injection, schedule: Q01DX009 (ip), vehicle: water
[12] = dose: 50.0 mg/kg/injection, schedule: Q01DX009 (ip), vehicle: water
[13] = dose: 100.0 mg/kg/injection, schedule: Q04DX003 (ip), vehicle: saline
[14] = dose: 200.0 mg/kg/injection, schedule: Q04DX003 (ip), vehicle: saline
[15] = dose: 400.0 mg/kg/injection, schedule: Q04DX003 (ip), vehicle: saline
[16] = dose: 50.0 mg/kg/injection, schedule: Q01DX009 (ip), vehicle: saline
[17] = dose: 100.0 mg/kg/injection, schedule: Q01DX009 (ip), vehicle: saline
[18] = dose: 200.0 mg/kg/injection, schedule: Q01DX009 (ip), vehicle: saline
[19] = dose: 50.0 mg/kg/injection, schedule: Q01DX009 (ip), vehicle: Klucel (hydroxypropylcellulose) (HPC)
[20] = dose: 100.0 mg/kg/injection, schedule: Q04DX003 (ip), vehicle: saline with Tween-80
[21] = dose: 200.0 mg/kg/injection, schedule: Q04DX003 (ip), vehicle: saline with Tween-80
[22] = dose: 400.0 mg/kg/injection, schedule: Q04DX003 (ip), vehicle: saline with Tween-80

Measured: T/C

C=C1C(=O)OC2(C)CCC1CC1OC1(C)CC/C=C(\C)CCC2OC(C)=O (stereo not given)
inactive: dose: 37.5 mg/kg/injection, schedule: Q01DX001 (ip), vehicle: Klucel (hydroxypropylcellulose) (HPC) 94 % of control | dose: 75.0 mg/kg/injection, schedule: Q01DX001 (ip), vehicle: Klucel (hydroxypropylcellulose) (HPC) 92 % of control | dose: 150.0 mg/kg/injection, schedule: Q01DX001 (ip), vehicle: Klucel (hydroxypropylcellulose) (HPC) 91 % of control | dose: 300.0 mg/kg/injection, schedule: Q01DX001 (ip), vehicle: Klucel (hydroxypropylcellulose) (HPC) 88 % of control

CCOC(=O)C(=CNc1cc(C)c2[nH]c3ccc(Br)cc3c2c1C)C(=O)OCC
inactive: [1] 93 % of control | [2] 93 % of control | [3] 86 % of control and 93 % of control

COC(=O)NC1C(=O)CCC(=O)C1C(N)=O (stereo not given)
inactive: dose: 7.5 mg/kg/injection, schedule: Q01DX005 (ip), vehicle: saline with Tween-80 86 % of control | dose: 15.0 mg/kg/injection, schedule: Q01DX005 (ip), vehicle: saline with Tween-80 98 % of control

Cc1ccc(/C=C/c2ccc([N+](=O)[O-])cc2)cc1
inactive: [4] 105 % of control and 97 % of control | [5] 90 % of control and 96 % of control | [6] 93 % of control | dose: 400.0 mg/kg/injection, schedule: Q01DX005 (ip), vehicle: Klucel (hydroxypropylcellulose) (HPC) 102 % of control and 103 % of control

O=c1[nH]c(-c2cccnc2)nnc1-c1ccc(Cl)cc1
inactive: [7] 102 % of control | [8] 103 % of control | [9] 96 % of control

CCCCCC(CN(C)C)C(=O)CC(SCC)c1ccc(Cl)c(Cl)c1 (stereo not given)
inactive: dose: 6.25 mg/kg/injection, schedule: Q01DX009 (ip), vehicle: water 102 % of control and 113 % of control | [10] 107 % of control and 109 % of control and 111 % of control | [11] 107 % of control and 120 % of control and 95 % of control | [12] 101 % of control and 112 % of control and 115 % of control | dose: 100.0 mg/kg/injection, schedule: Q01DX009 (ip), vehicle: water 108 % of control

O=C(Cc1ccccn1)c1cccnc1
inactive: [13] 94 % of control | [14] 96 % of control | [15] 100 % of control

O=C(CC(=O)C(F)(F)F)c1cccs1.O=C(CC(=O)C(F)(F)F)c1cccs1.O=C(CC(=O)C(F)(F)F)c1cccs1.[Eu]
inactive: [16] 113 % of control | [17] 106 % of control | [18] 102 % of control

OC(CNC1CCCCC1)c1ccccc1 (stereo not given)
inactive: dose: 6.25 mg/kg/injection, schedule: Q01DX009 (ip), vehicle: Klucel (hydroxypropylcellulose) (HPC) 98 % of control | dose: 12.5 mg/kg/injection, schedule: Q01DX009 (ip), vehicle: Klucel (hydroxypropylcellulose) (HPC) 100 % of control | dose: 25.0 mg/kg/injection, schedule: Q01DX009 (ip), vehicle: Klucel (hydroxypropylcellulose) (HPC) 95 % of control | [19] 109 % of control

CCCN1C(=O)C2C3CCC(O3)C2C1=O (stereo not given)
inactive: dose: 60.0 mg/kg/injection, schedule: Q01DX005 (ip), vehicle: saline 100 % of control | dose: 120.0 mg/kg/injection, schedule: Q01DX005 (ip), vehicle: saline 109 % of control | dose: 240.0 mg/kg/injection, schedule: Q01DX005 (ip), vehicle: saline 98 % of control

O=C(Nc1ccc(F)cc1)NN1CCOCC1
inactive: [1] 102 % of control | [2] 104 % of control | [3] 103 % of control

C[S+](C)CC[N+](C)(C)C
inactive: [10] 104 % of control | [11] 108 % of control | [12] 110 % of control

S=C(N/N=C\c1nc2ccccc2c2ccccc12)Nc1ccc(Br)cc1
inactive: dose: 100.0 mg/kg/injection, schedule: Q04DX002 (ip), vehicle: Klucel (hydroxypropylcellulose) (HPC) 93 % of control | dose: 200.0 mg/kg/injection, schedule: Q04DX002 (ip), vehicle: Klucel (hydroxypropylcellulose) (HPC) 93 % of control | dose: 400.0 mg/kg/injection, schedule: Q04DX002 (ip), vehicle: Klucel (hydroxypropylcellulose) (HPC) 96 % of control

OCc1cccc2c1C(O)c1ccccc1-2 (stereo not given)
inactive: [4] 100 % of control | [5] 104 % of control | [6] 100 % of control

O=C(/C=C/C(=O)Oc1cc(Cl)c(Cl)cc1Cl)Oc1cc(Cl)c(Cl)cc1Cl
inactive: [20] 96 % of control | [21] 88 % of control | [22] 97 % of control

CCCCCC1([N+](=O)[O-])CN(C)CC2CCCCN2C1 (stereo not given)
inactive: dose: 100.0 mg/kg/injection, schedule: Q04DX002 (ip), vehicle: saline 102 % of control | dose: 200.0 mg/kg/injection, schedule: Q04DX002 (ip), vehicle: saline 102 % of control

CC1(C)COC(c2ccccc2-c2ccccc2C2OCC(C)(C)CO2)OC1
inactive: [13] 100 % of control | [14] 99 % of control | [15] 104 % of control

Nc1ncc2nc3c4ccccc4c(=O)cc-3oc2n1
inactive: [7] 96 % of control | [8] 96 % of control | [9] 91 % of control

N#CC1=C(C#N)SCCCS1
inactive: [16] 100 % of control | [17] 100 % of control | [18] 99 % of control

CC(C)(C)c1cc(C(=O)[O-])c([OH2+])c(C(C)(C)C)c1.CC(C)(C)c1cc(C(=O)[O-])c([OH2+])c(C(C)(C)C)c1.[Mn+2]
inactive: [1] 106 % of control and 111 % of control | [2] 105 % of control and 121 % of control

Cc1cccc(NNC(=S)Nc2ccccc2)c1
inactive: [20] 95 % of control | [21] 100 % of control | [22] 90 % of control

COc1cccc(/C=C2/C(=O)N(Cc3ccco3)SC2=S)c1OC
inactive: [19] 97 % of control | dose: 100.0 mg/kg/injection, schedule: Q01DX009 (ip), vehicle: Klucel (hydroxypropylcellulose) (HPC) 95 % of control | dose: 200.0 mg/kg/injection, schedule: Q01DX009 (ip), vehicle: Klucel (hydroxypropylcellulose) (HPC) 92 % of control

CCCCN1C(=S)NC(OC)C1(C)C (stereo not given)
inactive: dose: 50.0 mg/kg/injection, schedule: Q01DX009 (ip), vehicle: suspension in saline 100 % of control | dose: 100.0 mg/kg/injection, schedule: Q01DX009 (ip), vehicle: suspension in saline 94 % of control | dose: 200.0 mg/kg/injection, schedule: Q01DX009 (ip), vehicle: suspension in saline 100 % of control

O=c1c(Cl)c2cc3c(cc2c2ccccc12)nc1ccccc1n3-c1ccccc1
inactive: dose: 400.0 mg/kg/injection, schedule: Q01DX001 (ip), vehicle: saline with Tween-80 89 % of control

O=C(O)C(Cc1ccc(OC(=O)C(F)(F)F)cc1)NC(=O)C(F)(F)F (stereo not given)
inactive: dose: 25.0 mg/kg/injection, schedule: Q04DX003 (ip), vehicle: saline with Tween-80 95 % of control | dose: 50.0 mg/kg/injection, schedule: Q04DX003 (ip), vehicle: saline with Tween-80 100 % of control | [20] 100 % of control and 101 % of control | [22] 93 % of control

NC(=S)c1ccc(N=Cc2c(O)ccc3ccccc23)cc1
inactive: dose: 50.0 mg/kg/injection, schedule: Q01DX001 (ip), vehicle: Klucel (hydroxypropylcellulose) (HPC) 100 % of control | dose: 100.0 mg/kg/injection, schedule: Q01DX001 (ip), vehicle: Klucel (hydroxypropylcellulose) (HPC) 94 % of control | dose: 200.0 mg/kg/injection, schedule: Q01DX001 (ip), vehicle: Klucel (hydroxypropylcellulose) (HPC) 97 % of control

O=C(NC(Cc1ccccc1)C(=O)NC(Cc1c[nH]c2ccccc12)C(=O)O)OCc1ccccc1 (stereo not given)
inactive: [7] 90 % of control | [8] 98 % of control | [9] 91 % of control

CC1CCCN2C(=O)CN(CCc3ccccc3)CC(=O)N12 (stereo not given)
inactive: [7] 99 % of control | [8] 100 % of control | [9] 100 % of control

COC1=CC(=[O+]C)/C(=C/c2c(OC)cc(OC)cc2OC)C(OC)=C1
inactive: dose: 50.0 mg/kg/injection, schedule: Q01DX009 (ip), vehicle: saline with Tween-80 94 % of control | dose: 100.0 mg/kg/injection, schedule: Q01DX009 (ip), vehicle: saline with Tween-80 86 % of control | dose: 200.0 mg/kg/injection, schedule: Q01DX009 (ip), vehicle: saline with Tween-80 86 % of control

CC(C)(C)NC(Cc1ccccc1)=NC1CCCCC1
inactive: dose: 12.5 mg/kg/injection, schedule: Q04DX002 (ip), vehicle: saline 103 % of control | dose: 25.0 mg/kg/injection, schedule: Q04DX002 (ip), vehicle: saline 101 % of control

From PubChem BioAssay AID330 (DTP/NCI, 2004)
